pIC50: −log10 of the molar value. Where a name gives a salt, the structure may show the parent alone. A value given as a limit tells only on which side of the number the result lay.

What is called pIC50 is −log10 of the IC50, conventionally taken in molar units.

For one assay, the system named is NF-AT. Description: NF-AT Inhibition Assay Directed β-Galactosidase Expression in FGL-5 cells. In kind it is cell-based. Conditions: 50% inhibition of NF-AT directed β-galactosidase activity in FGL-5 cells stimulated with phorbol dibutyrate and ionomycin; TABLE 3. The gist of the method: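 FGL-5 Jurkat cells (3 million cells/ml) carry NF-AT-site-driven lacZ. They were stimulated with phorbol dibutyrate plus ionomycin and incubated with compound 16-18 h at 37 °C, in duplicate wells with matched ethanol or DMSO vehicle controls. β-Galactosidase was read as fluorescence from 4-methylumbelliferyl-β-D-galactoside cleavage, giving percent inhibition.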

Another assay addresses FKBP (Homo sapiens, UniProt P62942). In words: PPIase Inhibition Assay. Conditions: concentration of inhibitor required for 50% inhibition of enzyme activity; FKBP, substrate Succinyl-Ala-Phe-Pro-Phe-para-nitroanilide; TABLE I. Format: biochemical. The procedure, abridged:
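Chymotrypsin-coupled isomerization of Succinyl-Ala-Phe-Pro-Phe-para-nitroanilide by FKBP in ice-cold 25 mM HEPES pH 7.8, 100 mM NaCl, compound in DMSO. A390 followed 90 sec; first-order rate constants give % activity remaining after subtracting uncatalyzed rate; IC50 by linear regression of V-/V+ versus concentration.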

The test system of a further assay is human T-cells. Description: Suppression of Human T-Cell Proliferation Assay (PHA-stimulated, [3H]-thymidine incorporation). In kind it is cell-based. Conditions: concentration inhibiting [3H]-thymidine incorporation of PHA-stimulated T-cells by 50%, 72 hours; TABLE 2; read-out: IC50. The gist of the method:
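SRBC-rosette-purified human peripheral T-cells stimulated with PHA-M (40 μg/ml stock) and compound dilutions, in duplicate, for 72 h at 37° C. Proliferation measured by [3H]-thymidine incorporation during the final 6 h, read by liquid scintillation counting.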
For orientation: Incorporation of labelled thymidine or its analogues reports DNA synthesis.

Sequence of FKBP (P62942 whole entry): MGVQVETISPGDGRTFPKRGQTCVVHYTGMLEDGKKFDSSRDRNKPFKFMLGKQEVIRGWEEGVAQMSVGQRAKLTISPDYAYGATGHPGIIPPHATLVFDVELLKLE

Consider `COc1cc(C(=O)CN2CCC[C@H]2C(=O)NCCc2ccc(N)cc2)cc(OC)c1OC` [Example 125, L-Proline, 1-[2-(3,4,5-Trimethoxyphenyl)-2-Oxoethyl] 2-(4-aminophenyl)ethylamide Dihydrochloride], for which the results for the pIC50 in the assay with NF-AT, at FKBP and in the assay with human T-cells were < 4.82, < 5.30 and < 4.82, respectively.
Turning to `C=CCOC(=O)Nc1ccc(CCCOC(=O)[C@@H]2CCCN2CC(=O)c2cc(OC)c(OC)c(OC)c2)cc1` [Example 126, L-Proline, 1-[2-(3,4,5-Trimethoxyphenyl)-2-Oxoethyl] 3-(4-[N-Carboallyloxy]aminophenyl)propyl Ester Hydrochloride], the values for the pIC50 in the assay with NF-AT, against FKBP and in the assay with human T-cells were < 4.82, < 5.30 and 5.00, respectively.
For `COc1cc(C(=O)CN2CCC[C@H]2C(=O)NCC(=O)c2ccccc2)cc(OC)c1OC` [Example 127, L-Proline, 1-[2-(3,4,5-Trimethoxyphenyl)-2-Oxoethyl] 2-Phenyl-2-oxoethylamide] the same measures were < 4.82, < 5.30 and < 4.82.
For `COc1cc(C(=O)CN2CCC[C@H]2C(=O)NCC2CCCO2)cc(OC)c1OC` (stereo partly drawn) [Example 128, L-Proline, 1-[2-(3,4,5-Trimethoxyphenyl)-2-Oxoethyl] Tetrahydrofurfurylamide] the same measures were < 4.82, < 5.30 and 5.40.
`COc1cc(C(=O)CN2CCC[C@H]2C(=O)NCc2cccc3ccccc23)cc(OC)c1OC` [Example 129, L-Proline, 1-[2-(3,4,5-Trimethoxyphenyl)-2-Oxoethyl] Naphthalen-1-ylmethylamide]: the results for the negative-log IC50 (pIC50) in the assay on NF-AT, against FKBP and in the assay with human T-cells were < 4.82, < 5.30 and 5.00, respectively.
For `COc1cc(C(=O)CN2CCC[C@H]2C(=O)NCCc2ccc(S(N)(=O)=O)cc2)cc(OC)c1OC` [Example 130, L-Proline, 1-[2-(3,4,5-Trimethoxyphenyl)-2-Oxoethyl] 2-(4-Sulfamoylphenyl)ethylamide] the same measures were < 4.82, < 5.30 and 5.40.
The corresponding values for `COc1cc(C(=O)CN2CCC[C@H]2C(=O)N2CCC(c3ccccc3)CC2)cc(OC)c1OC` [Example 131, L-Proline, 1-[2-(3,4,5-Trimethoxyphenyl)-2-Oxoethyl] 4-Phenylpiperldenylamide] are < 4.48, < 5.30 and 4.66.
The corresponding values for `COc1ccc(CNC(=O)[C@@H]2CCCN2CC(=O)c2cc(OC)c(OC)c(OC)c2)cc1` [Example 132, L-Proline, 1-[2-(3,4,5-Trimethoxyphenyl)-2-Oxoethyl] 4-Methoxybenzamide Hydrochloride] are < 4.48, < 5.30 and 4.62.
`COc1cccc(CNC(=O)[C@@H]2CCCN2CC(=O)c2cc(OC)c(OC)c(OC)c2)c1` [Example 133, L-Proline, 1-[2-(3,4,5-Trimethoxyphenyl)-2-Oxoethyl] 3-Methoxybenzamide Hydrochloride]: the negative-log IC50 (pIC50) was < 4.48 in the assay with NF-AT, < 5.30 against FKBP and 4.66 with human T-cells.
The corresponding values for `COc1ccccc1CNC(=O)[C@@H]1CCCN1CC(=O)c1cc(OC)c(OC)c(OC)c1` [Example 134, L-Proline, 1-[2-(3,4,5-Trimethoxyphenyl)-2-Oxoethyl] 2-Methoxybenzamide Hydrochloride] are < 4.48, < 5.30 and 4.72.
For `COc1cc(C(=O)CN2CCC[C@H]2C(=O)N(C)CCc2ccccc2)cc(OC)c1OC` [Example 135, L-Proline, 1-[2-(3,4,5-Trimethoxyphenyl)-2-Oxoethyl] N-MethylphenethylamideHydrochloride] the same measures were < 4.48, < 5.30 and 4.85.
The corresponding values for `COc1cc(C(=O)CN2CCC[C@H]2C(=O)N[C@@H](C)c2ccccc2)cc(OC)c1OC` [Example 136, L-Proline, 1-[2-(3,4,5-Trimethoxyphenyl)-2-Oxoethyl] (S)-α-methylbenzylamide Hydrochloride] are < 4.48, < 5.30 and 5.15.
As to `COc1cc(C(=O)CN2CCC[C@H]2C(=O)N[C@H](C)c2ccccc2)cc(OC)c1OC` [Example 137, L-Proline, 1-[2-(3,4,5-Trimethoxyphenyl)-2-Oxoethyl] (R)-α-methylbenzylamide Hydrochloride], the negative logarithm of the IC50 (pIC50) with NF-AT was < 4.48; against FKBP, < 5.30; with human T-cells, 4.80.
In the case of `COc1cc(C(=O)CN2CCC[C@H]2C(=O)NC(C)CCc2ccccc2)cc(OC)c1OC` (stereo partly drawn) [Example 138, L-Proline, 1-[2-(3,4,5-Trimethoxyphenyl)-2-Oxoethyl] 1-methyl-3-phenylpropylamide Hydrochloride], the pIC50 is < 4.48 in the assay on NF-AT, < 5.30 against FKBP and 4.74 with human T-cells.
The corresponding values for `COc1cc(C(=O)CN2CCC[C@H]2C(=O)NCC23CC4CC(CC(C4)C2)C3)cc(OC)c1OC` [Example 139, L-Proline, 1-[2-(3,4,5-Trimethoxyphenyl)-2-Oxoethyl] Adamant-1-ylmethylamide Hydrochloride] are < 4.48, < 5.30 and 5.40.
For `COc1cc(C(=O)CN2CCC[C@H]2C(=O)N[C@H](C)c2cccc3ccccc23)cc(OC)c1OC` [Example 140, L-Proline, 1-[2-(3,4,5-Trimethoxyphenyl)-2-Oxoethyl] 1-(R)-(1-naphthyl)ethylamide Hydrochloride] the same measures were < 4.48, < 5.30 and 5.00.
For `COc1cc(C(=O)CN2CCC[C@H]2C(=O)NCC2CCCCC2)cc(OC)c1OC` [Example 141, L-Proline, 1-[2-(3,4,5-Trimethoxylphenyl)-2-Oxoethyl] Cyclohexylmethylamide], the pIC50 is < 4.48 in the assay with NF-AT, < 5.30 against FKBP and 5.15 in the assay with human T-cells.
The corresponding values for `COc1cc(C(=O)CN2CCC[C@H]2C(=O)NC(c2ccccc2)c2ccccc2)cc(OC)c1OC` [Example 142, L-Proline, 1-[2-(3,4,5-Trimethoxyphenyl)-2-Oxoethyl] Diphenylmethylamide Hydrochloride] are < 4.48, < 5.30 and 4.92.
Take `COc1cc(C(=O)CN2CCC[C@H]2C(=O)NC(C)(C)C)cc(OC)c1OC` [Example 143, L-Proline, 1-[2-(3,4,5-Trimethoxyphenyl)-2-Oxoethyl] tert-Butylamide Hydrochloride]: the figures for the negative logarithm of the IC50 (pIC50) in the assay on NF-AT, against FKBP and in the assay on human T-cells were < 4.48, < 5.30 and 5.52, respectively.
For `COc1cc(C(=O)CN2CCC[C@H]2C(=O)NC(Cc2ccccc2)c2ccccc2)cc(OC)c1OC` (stereo partly drawn) [Example 144, L-Proline, 1-[2-(3,4,5-Trimethoxyphenyl)-2-Oxoethyl] 1,2-DiphenylethylamideHydrochloride] the same measures were < 4.48, < 5.30 and 4.72.
Turning to `COc1cc(C(=O)CN2CCC[C@H]2C(=O)NC2CCCCC2)cc(OC)c1OC` [Example 145, L-Proline, 1-[2-(3,4,5-Trimethoxyphenyl)-2-Oxoethyl] Cyclohexyl amide Hydrochloride], the negative-log IC50 (pIC50) in the assay with NF-AT was < 4.48; against FKBP, < 5.30; in the assay with human T-cells, 5.40.
In the case of `COc1cc(C(=O)CN2CCCC[C@H]2C(=O)NCc2ccccc2)cc(OC)c1OC` [Example 146, L-Homoproline, 1-[2-(3,4,5-Trimethoxyphenyl)-2-Oxoethyl] Benzylamide Hydrochloride], the pIC50 in the assay with NF-AT was < 4.82; at FKBP it was < 5.30; with human T-cells it was < 4.82.
For the molecule `COc1cc(C(=O)CN2CCCC[C@H]2C(=O)NCC23CC4CC(CC(C4)C2)C3)cc(OC)c1OC` [Example 147, L-Homoproline, 1-[2-(3,4,5-Trimethoxyphenyl)-2-Oxoethyl] Adamant-1-ylmethylamide Hydrochloride], the pIC50 was < 4.82 in the assay on NF-AT, < 5.30 against FKBP and 5.10 in the assay with human T-cells.
As for `COc1cc(C(=O)CN2CCCC[C@H]2C(=O)NCC2CCCO2)cc(OC)c1OC` (stereo partly drawn) [Example 148, L-Homoproline, 1-[2-(3,4,5-Trimethoxyphenyl)-2-Oxoethyl] tetrahydrofurfurylamide], the values for the pIC50 in the assay with NF-AT, on FKBP and with human T-cells were < 4.82, < 5.30 and < 4.82, respectively.
For `COc1cc(C(=O)CN2CCCC[C@H]2C(=O)NCCc2ccc(S(N)(=O)=O)cc2)cc(OC)c1OC` [Example 149, L-Homoproline, 1-[2-(3,4,5-Trimethoxyphenyl)-2-Oxoethyl] 2-(4-Sulfamoylphenyl)ethylamide], the figures for the pIC50 in the assay on NF-AT, against FKBP and in the assay on human T-cells were < 4.82, < 5.30 and < 4.82, respectively.
Turning to `COc1cc(C(=O)CN2CCCC[C@H]2C(=O)N[C@@H](C)c2ccccc2)cc(OC)c1OC` [Example 150, L-Homoproline, 1-[2-(3,4,5-Trimethoxyphenyl)-2-Oxoethyl] (S)-α-methylbenzylamide Hydrochloride], the negative-log IC50 (pIC50) is < 4.82 with NF-AT, < 5.30 at FKBP and < 4.82 with human T-cells.
